For 17 molecules, IC50 results are on record in patent US20250179077A1, “QUINAZOLINE COMPOUNDS AND USES THEREOF AS INHIBITORS OF MUTANT KRAS PROTEINS” (AMGEN INC., priority 2022, published 2025).

Each structure is given as a SMILES string.

Experiment [1] concerns the target His-tagged KRAS G12D protein (Homo sapiens, UniProt P01116, G12D). In words: KRAS G12D TR-FRET Assay. The format is binding. In outline:
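His-KRAS G12D (20 nM) was preincubated with titrated compound for 30 min at RT in HEPES pH 7.4 buffer with MgCl2, 10 μM GDP. Biotin-KRPep-2d (20 nM) was then added for 1 h, followed by Eu-anti-His/streptavidin-d2 for 1 h. The 665/615 nm TR-FRET ratio was fitted 4-parameter to give IC50.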

Experiment [2] addresses GDP-bound KRAS protein (aa 1-169), containing both G12D and C118A amino acid substitutions (Homo sapiens, UniProt P01116, C118A/G12D). In words: KRAS G12D Coupled Nucleotide Exchange Assay. The format is biochemical. How it is done: KRAS G12D Coupled Nucleotide Exchange Assay
Following compound pre-incubation, purified SOS protein (aa 564-1049) and GTP (Roche 10106399001) were added to the assay wells and incubated for an additional 30 min. […] The assay plates were then read on a PerkinElmer EnVision Multilabel Reader, using AlphaScreen® technology, and data were analyzed using a 4-parameter logistic model to calculate IC50 values.

Experiment [3] has as its system Phosphorylation of ERK1/2 in AsPC-1 cells. In words: Phospho-ERK1/2 MSD Assay. The format is cell-based. The settings on record: Homo sapiens, ASPC1, 2 h, read-out: 2 h p-ERK (AsPC-1 cells), IC50, AsPC-1 cells, 2 h compound treatment. In outline:
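Phospho-ERK1/2 was quantified by MSD whole-cell lysate immunoassay in RIPA lysates made with protease/phosphatase inhibitors. A 4-parameter logistic model gave IC50.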

Sequence of GDP-bound KRAS protein (aa 1-169), containing both G12D and C118A amino acid substitutions (P01116 1-169 isoform P01116-2 G12D/C118A): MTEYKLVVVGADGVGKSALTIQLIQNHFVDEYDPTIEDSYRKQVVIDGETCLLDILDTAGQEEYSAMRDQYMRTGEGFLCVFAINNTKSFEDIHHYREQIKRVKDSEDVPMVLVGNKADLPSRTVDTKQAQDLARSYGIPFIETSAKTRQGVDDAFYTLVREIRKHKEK
Sequence of His-tagged KRAS G12D protein (P01116 1-188 isoform P01116-2 G12D): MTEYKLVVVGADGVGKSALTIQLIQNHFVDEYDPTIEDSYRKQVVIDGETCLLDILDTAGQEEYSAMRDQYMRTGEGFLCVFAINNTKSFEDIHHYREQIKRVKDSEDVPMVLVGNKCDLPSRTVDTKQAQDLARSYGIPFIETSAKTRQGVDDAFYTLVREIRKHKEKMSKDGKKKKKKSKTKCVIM

For `N#Cc1cc2c(N3CCCOCC3)nc(OC[C@@]34CCCN3C[C@H](F)C4)nc2c(F)c1-c1cc(O)cc2ccccc12` [Example 44, 8-Fluoro-2-(((2R,7aS)-2-fluorotetrahydro-1H-pyrrolizin-7a(5H)-yl)methoxy)-7-(3-hydroxynaphthalen-1-yl)-4-(1,4-oxazepan-4-yl)quinazoline-6-carbonitrile], the results for the IC50 in experiment [1], in experiment [2] and in experiment [3] were 50 nM, 28 nM and 1860 nM, respectively.

Regarding `CCc1cccc2cc(O)cc(-c3c(C#N)cc4c(N5CCCOCC5)nc(OC[C@@]56CCCN5C[C@H](F)C6)nc4c3F)c12` [Example 45, 7-(8-Ethyl-3-hydroxynaphthalen-1-yl)-8-fluoro-2-(((2R,7aS)-2-fluorotetrahydro-1H-pyrrolizin-7a(5H)-yl)methoxy)-4-(1,4-oxazepan-4-yl)quinazoline-6-carbonitrile], the IC50 stood at 12 nM in experiment [1], 7 nM in experiment [2] and 525 nM in experiment [3].

Turning to `CCc1c(F)ccc2cc(O)cc(-c3c(N)cc4c(N5CCCOCC5)nc(OC[C@@]56CCCN5C[C@H](F)C6)nc4c3F)c12` [Example 46, 4-(6-Amino-8-fluoro-2-(((2R,7aS)-2-fluorotetrahydro-1H-pyrrolizin-7a(5H)-yl)methoxy)-4-(1,4-oxazepan-4-yl)quinazolin-7-yl)-5-ethyl-6-fluoronaphthalen-2-ol], the IC50 is 79 nM in experiment [1], 36 nM in experiment [2] and 2570 nM in experiment [3].

On to `C#Cc1c(F)ccc2cc(O)cc(-c3ccc4c(N5CCC[C@@](C)(O)C5)nc(OC[C@@]56CCCN5C[C@H](F)C6)nc4c3F)c12` [Example 47, (R)-1-(7-(8-Ethynyl-7-fluoro-3-hydroxynaphthalen-1-yl)-8-fluoro-2-(((2R,7aS)-2-fluorotetrahydro-1H-pyrrolizin-7a(5H)-yl)methoxy)quinazolin-4-yl)-3-methylpiperidin-3-ol], for which the IC50 in experiment [1] came to 4 nM; in experiment [2] it was 4 nM; in experiment [3], 21 nM.

For the molecule `C#Cc1cccc2cc(O)cc(-c3ccc4c(N5CCC[C@@](C)(O)C5)nc(OC[C@@]56CCCN5C[C@H](F)C6)nc4c3F)c12` [Example 50, (R)-1-(7-(8-Ethynyl-3-hydroxynaphthalen-1-yl)-8-fluoro-2-(((2R,7a.S)-2-fluorotetrahydro-1H-pyrrolizin-7a(5H)-yl)methoxy)quinazolin-4-yl)-3-methylpiperidin-3-ol], the IC50 in experiment [1] is 3 nM; in experiment [2], 3 nM; in experiment [3], 23 nM.

On to `CCc1c(F)ccc2cc(O)cc(-c3ccc4c(N5CCCC6(CC(=O)N6)C5)nc(OC[C@@]56CCCN5C[C@H](F)C6)nc4c3F)c12` (stereo partly drawn) [Example 51, 6-(7-(8-Ethyl-7-fluoro-3-hydroxynaphthalen-1-yl)-8-fluoro-2-(((2R,7aS)-2-fluorotetrahydro-1H-pyrrolizin-7a(5H)-yl)methoxy)quinazolin-4-yl)-1,6-diazaspiro[3.5]nonan-2-one], for which the values for the IC50 in experiment [1], in experiment [2] and in experiment [3] were 3 nM, 4 nM and 47 nM, respectively.

Take `CCc1c(F)ccc2cc(O)cc(-c3ccc4c(N5CCCC6(CNC6=O)C5)nc(OC[C@@]56CCCN5C[C@H](F)C6)nc4c3F)c12` (stereo partly drawn) [Example 52, 6-(7-(8-Ethyl-7-fluoro-3-hydroxynaphthalen-1-y1)-8-fluoro-2-(((2R,7a.S)-2-fluorotetrahydro-1H-pyrrolizin-7a(5H)-yl)methoxy)quinazolin-4-yl)-2,6-diazaspiro[3.5]nonan-1-one]: the IC50 in experiment [1] was found to be 10 nM; in experiment [2], 7 nM; in experiment [3], 179 nM.

As for `CCc1c(F)ccc2cc(O)cc(-c3ccc4c(N5CCCC6(CNC(=O)C6)C5)nc(OC[C@@]56CCCN5C[C@H](F)C6)nc4c3F)c12` (stereo partly drawn) [Example 53, 7-(7-(8-Ethyl-7-fluoro-3-hydroxynaphthalen-1-yl)-8-fluoro-2-(((2R,7aS)-2-fluorotetrahydro-1H-pyrrolizin-7a(5H)-yl)methoxy)quinazolin-4-yl)-2,7-diazaspiro[4.5]decan-3-one], the IC50 was found to be 3 nM in experiment [1], 7 nM in experiment [2] and 251 nM in experiment [3].

With `CCc1c(F)ccc2cc(O)cc(-c3ccc4c(N5CCCC6(CNC(=O)O6)C5)nc(OC[C@@]56CCCN5C[C@H](F)C6)nc4c3F)c12` (stereo partly drawn) [Example 54, 7-(7-(8-Ethyl-7-fluoro-3-hydroxynaphthalen-1-yl)-8-fluoro-2-(((2R,7aS)-2-fluorotetrahydro-1H-pyrrolizin-7a(5H)-yl)methoxy)quinazolin-4-yl)-1-oxa-3,7-diazaspiro[4.5]decan-2-one], the values for the IC50 in experiment [1], in experiment [2] and in experiment [3] were 3 nM, 4 nM and 23 nM, respectively.

For the molecule `C[C@@]1(O)CCCN(c2nc(OC[C@@]34CCCN3C[C@H](F)C4)nc3c(F)c(-c4cc(N)cc(Cl)c4C(F)(F)F)ccc23)C1` [Example 60, (R)-1-(7-(5-Amino-3-chloro-2-(trifluoromethyl)phenyl)-8-fluoro-2-(((2R,7aS)-2-fluorotetrahydro-1H-pyrrolizin-7a(5H)-yl)methoxy)quinazolin-4-yl)-3-methylpiperidin-3-ol], the values for the half-maximal inhibitory concentration (IC50) in experiment [1], in experiment [2] and in experiment [3] were 15 nM, 12 nM and 1170 nM, respectively.

Consider `C#Cc1c(F)ccc2cc(N)cc(-c3ccc4c(N5CCC[C@@](C)(O)C5)nc(OC[C@@]56CCCN5C[C@H](F)C6)nc4c3F)c12` [Example 65, (R)-1-(7-(3-Amino-8-ethynyl-7-fluoronaphthalen-1-yl)-8-fluoro-2-(((2R,7aS)-2-fluorotetrahydro-1H-pyrrolizin-7a(5H)-yl)methoxy)quinazolin-4-yl)-3-methylpiperidin-3-ol], for which the IC50 in experiment [1] stood at 11 nM; in experiment [2], 6 nM; in experiment [3], 260 nM.

On to `CCc1c(F)ccc2cc(N)cc(-c3c(F)cc4c(N5CCCC(O)(C(F)F)C5)nc(OC[C@@]56CCCN5C[C@H](F)C6)nc4c3F)c12` (stereo partly drawn) [Example 68, 1-(7-(3-Amino-8-ethyl-7-fluoronaphthalen-1-yl)-6,8-difluoro-2-(((2R,7aS)-2-fluorotetrahydro-1H-pyrrolizin-7a(5H)-yl)methoxy)quinazolin-4-yl)-3-(difluoromethyl)piperidin-3-ol], for which the IC50 in experiment [1] was found to be 436 nM; in experiment [2], 23 nM; in experiment [3], 1930 nM.

On to `C#Cc1c(F)ccc2cc(N)cc(-c3c(F)cc4c(N5CCCC6(CNC(=O)O6)C5)nc(OC[C@@]56CCCN5C[C@H](F)C6)nc4c3F)c12` (stereo partly drawn) [Example 69, 7-(7-(3-Amino-8-ethynyl-7-fluoronaphthalen-1-yl)-6,8-difluoro-2-(((2R,7aS)-2-fluorotetrahydro-1H-pyrrolizin-7a(5H)-yl)methoxy)quinazolin-4-yl)-1-oxa-3,7-diazaspiro[4.5]decan-2-one], for which the IC50 amounted to 11 nM in experiment [1], 5 nM in experiment [2] and 175 nM in experiment [3].

For `C#Cc1c(F)ccc2cc(N)cc(-c3c(F)cc4c(N5CCOCC(C)(O)C5)nc(OC[C@@]56CCCN5C[C@H](F)C6)nc4c3F)c12` (stereo partly drawn) [Example 70, 4-(7-(3-Amino-8-ethynyl-7-fluoronaphthalen-1-yl)-6,8-difluoro-2-(((2R,7aS)-2-fluorotetrahydro-1H-pyrrolizin-7a(5H)-yl)methoxy)quinazolin-4-yl)-6-methyl-1,4-oxazepan-6-ol], the IC50 in experiment [1] came out at 19 nM; in experiment [2] it was 4 nM; in experiment [3], 185 nM.

With `CCc1c(F)ccc2cc(N)cc(-c3c(F)cc4c(N5CCCC6(CNC(=O)O6)C5)nc(OC[C@@]56CCCN5C[C@H](F)C6)nc4c3F)c12` (stereo partly drawn) [Example 73, 7-(7-(3-Amino-8-ehtyl-7-fluoronaphthalen-1-yl)-6,8-difluoro-2-(((2R,7aS)-2-fluorotetrahydro-1H-pyrrolizin-7a(5H)-yl)methoxy)quinazolin-4-yl)-1-oxa-3,7-diazaspiro[4.5]decan-2-one], the IC50 in experiment [1] was 2 nM; in experiment [2], 1 nM; in experiment [3], 90 nM.

Turning to `CCc1c(F)ccc2cc(N)cc(-c3ccc4c(N5CCC[C@@](C)(O)C5)nc(OC[C@@]56CCCN5C[C@H](F)C6)nc4c3F)c12` [Example 74, (R)-1-(7-(3-Amino-8-ethyl-7-fluoronaphthalen-1-yl)-8-fluoro-2-(((2R,7aS)-2-fluorotetrahydro-1H-pyrrolizin-7a(5H)-yl)methoxy)quinazolin-4-yl)-3-methylpiperidin-3-ol], the figures for the IC50 in experiment [1], in experiment [2] and in experiment [3] were 117 nM, 10 nM and 1050 nM, respectively.

In the case of `CCc1c(F)ccc2cc(N)cc(-c3c(F)cc4c(N5CCCC6(CCO6)C5)nc(OC[C@@]56CCCN5C[C@H](F)C6)nc4c3F)c12` (stereo partly drawn) [Example 75, 4-(6,8-Difluoro-2-(((2R,7aS)-2-fluorotetrahydro-1H-pyrrolizin-7a(5H)-yl)methoxy)-4-(1-oxa-6-azaspiro[3.5]nonan-6-yl)quinazolin-7-yl)-5-ethyl-6-fluoronaphthalen-2-amine], the IC50 in experiment [1] came out at 154 nM; in experiment [2], 9 nM; in experiment [3], 500 nM.
